This assay addresses PD-1/PD-L1 (Homo sapiens (Human), UniProt Q9NZQ7). Kind of assay: PD-1/PD-L1 Homogeneous Time-Resolved Fluorescence (HTRF) Binding Assay. As to conditions: recombinant human PD-1 (3 nM) and PD-L1 (10 nM), 25° C., PBS pH 7.4. In short, it runs like this: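 Fc-tagged human PD-1 (25-167, 3 nM) and His-tagged PD-L1 (19-238, 10 nM) preincubated with inhibitor 40 min in PBS pH 7.4, 0.05% Tween-20, 0.1% BSA, 1% DMSO, 25 °C. Binding detected by HTRF (Eu anti-IgG/APC anti-His, 665/620 nm) after 60 min; IC50 from percent control activity.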
Background: TR-FRET usually uses a lanthanide donor and a delayed reading to cut background.

A value given as a limit tells only on which side of the number the result lay.

In general, IC50 refers to the concentration needed to halve the response being measured.

PD-1/PD-L1, sequence (Q9NZQ7 19-238): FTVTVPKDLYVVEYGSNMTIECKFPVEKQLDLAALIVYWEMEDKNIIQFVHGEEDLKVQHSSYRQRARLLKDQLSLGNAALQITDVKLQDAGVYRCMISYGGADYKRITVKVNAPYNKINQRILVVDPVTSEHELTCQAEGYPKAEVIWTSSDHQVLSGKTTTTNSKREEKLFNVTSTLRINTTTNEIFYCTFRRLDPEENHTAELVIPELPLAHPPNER

Consider `Cc1c(Nc2nccc3cc(CN4CC[C@@H](O)C4)cnc23)cccc1-c1cccc(-c2nc3cc(CN4CC[C@H](CC(=O)O)C4)cc(C#N)c3o2)c1C` [Example 173, 2-((R)-1-((7-cyano-2-(3′-(3-(((R)-3-hydroxypyrrolidin-1-yl)methyl)-1,7-naphthyridin-8-ylamino)-2,2′-dimethylbiphenyl-3-yl)benzo[d]oxazol-5-yl)methyl)pyrrolidin-3-yl)acetic acid], for which the IC50 is at most 10 nM.
`Cc1c(Nc2nccc3cc(CN4CC[C@@H](O)C4)cnc23)cccc1-c1cccc(-c2nc3cc(CN4CC[C@@H](CC(=O)O)C4)cc(C#N)c3o2)c1C` [Example 174, 2-((S)-1-((7-cyano-2-(3′-(3-(((R)-3-hydroxypyrrolidin-1-yl)methyl)-1,7-naphthyridin-8-ylamino)-2,2′-dimethylbiphenyl-3-yl)benzo[d]oxazol-5-yl)methyl)pyrrolidin-3-yl)acetic acid]: the IC50 was at most 10 nM.
The value for `Cc1c(Nc2nccc3cc(CN4CC[C@@H](O)C4)cnc23)cccc1-c1cccc(-c2nc3cc(CN[C@H]4CCC[C@H]4C(=O)O)cc(C#N)c3o2)c1C` [Example 175, (1R,2S)-2-((7-cyano-2-(3′-(3-(((R)-3-hydroxypyrrolidin-1-yl)methyl)-1,7-naphthyridin-8-ylamino)-2,2′-dimethylbiphenyl-3-yl)benzo[d]oxazol-5-yl)methylamino) cyclopentanecarboxylic acid] was at most 10 nM.
As for `Cc1c(Nc2nccc3cc(CN4CC[C@@H](O)C4)cnc23)cccc1-c1cccc(-c2nc3cc(CN4CC5CC4CC5C(=O)O)cc(C#N)c3o2)c1C` (stereo partly drawn) [Example 176, 2-((7-cyano-2-(3′-(3-(((R)-3-hydroxypyrrolidin-1-yl)methyl)-1,7-naphthyridin-8-ylamino)-2,2′-dimethylbiphenyl-3-yl)benzo[d]oxazol-5-yl)methyl)-2-aza bicyclo[2.2.1]heptane-5-carboxylic acid], the figure is at most 10 nM; as for `Cc1c(Nc2nccc3cc(CN4CC[C@@H](O)C4)cnc23)cccc1-c1cccc(-c2nc3cc(CN4CC5(CC(C(=O)O)C5)C4)cc(C#N)c3o2)c1C` [Example 177, 2-((7-cyano-2-(3′-(3-(((R)-3-hydroxypyrrolidin-1-yl)methyl)-1,7-naphthyridin-8-ylamino)-2,2′-dimethylbiphenyl-3-yl)benzo[d]oxazol-5-yl)methyl)-2-azaspiro[3,3]heptane-6-carboxylic acid], at most 10 nM.
Take `Cc1c(Nc2nccc3cc(CN4CC[C@@H](O)C4)cnc23)cccc1-c1cccc(-c2nc3cc(CN4CC5(C(=O)O)CC4C5)cc(C#N)c3o2)c1C` [Example 178, (R)-2-((7-cyano-2-(3′-(3-((3-hydroxypyrrolidin-1-yl)methyl)-1,7-naphthyridin-8-ylamino)-2,2′-dimethylbiphenyl-3-yl)benzo[d]oxazol-5-yl)methyl)-2-aza bicyclo[2.1.1]hexane-4-carboxylic acid]: the IC50 is at most 10 nM.
The value for `Cc1c(Nc2nccc3cc(CN4CC[C@@H](O)C4)cnc23)cccc1-c1cccc(-c2nc3cc(CN[C@H]4CCC[C@@H]4C(=O)O)cc(C#N)c3o2)c1C` [Example 179, (1S,2S)-2-((7-cyano-2-(3′-(3-(((R)-3-hydroxypyrrolidin-1-yl)methyl)-1,7-naphthyridin-8-ylamino)-2,2′-dimethylbiphenyl-3-yl)benzo[d]oxazol-5-yl)methylamino)cyclopentanecarboxylic acid] was at most 10 nM; that for `Cc1c(Nc2nccc3cc(CN4CC[C@@H](O)C4)cnc23)cccc1-c1cccc(-c2nc3cc(CN[C@H]4C[C@@H](C(=O)O)C4)cc(C#N)c3o2)c1C` [Example 180, cis-3-((7-cyano-2-(3′-(3-(((R)-3-hydroxypyrrolidin-1-yl)methyl)-1,7-naphthyridin-8-ylamino)-2,2′-dimethylbiphenyl-3-yl)benzo [d]oxazol-5-yl)methylamino)cyclobutane carboxylic acid] was at most 10 nM; that for `Cc1c(Nc2nccc3cc(CN4CC[C@@H](O)C4)cnc23)cccc1-c1cccc(-c2nc3cc(CN[C@H]4C[C@H](C(=O)O)C4)cc(C#N)c3o2)c1C` [Example 181, trans-3-((7-cyano-2-(3′-(3-(((R)-3-hydroxypyrrolidin-1-yl)methyl)-1,7-naphthyridin-8-ylamino)-2,2′-dimethylbiphenyl-3-yl)benzo [d]oxazol-5-yl)methylamino)cyclobutane carboxylic acid] was at most 10 nM.
The value for `Cc1c(Nc2nccc3cc(CN4CC[C@@H](O)C4)cnc23)cccc1-c1cccc(-c2nc3cc(CN[C@H]4CC[C@H](C(=O)O)C4)cc(C#N)c3o2)c1C` [Example 182, (1S,3S)-3-((7-cyano-2-(3′-(3-(((R)-3-hydroxypyrrolidin-1-yl)methyl)-1,7-naphthyridin-8-ylamino)-2,2′-dimethylbiphenyl-3-yl)benzo [d]oxazol-5-yl)methylamino)cyclopentane carboxylic acid] was at most 10 nM; that for `Cc1c(Nc2nccc3cc(CN4CC[C@@H](O)C4)cnc23)cccc1-c1cccc(-c2nc3cc(CNC45CCC(C(=O)O)(CC4)C5)cc(C#N)c3o2)c1C` [Example 183, (R)-4-((7-cyano-2-(3′-(3-((3-hydroxypyrrolidin-1-yl)methyl)-1,7-naphthyridin-8-ylamino)-2,2′-dimethylbiphenyl-3-yl)benzo [d]oxazol-5-yl)methylamino)bicyclo[2.2.1]heptane-1-carboxylic acid] was at most 10 nM.
As for `Cc1c(Nc2nccc3cc(CN4CC[C@@H](O)C4)cnc23)cccc1-c1cccc(-c2nc3cc(CN[C@H]4CC[C@H](CC(=O)O)CC4)cc(C#N)c3o2)c1C` [Example 184, 2-(trans-4-((7-cyano-2-(3′-(3-(((R)-3-hydroxypyrrolidin-1-yl)methyl)-1,7-naphthyridin-8-ylamino)-2,2′-dimethylbiphenyl-3-yl)benzo[d]oxazol-5-yl)methylamino)cyclohexyl)acetic acid], the figure is at most 10 nM; as for `COCC1(C(=O)O)CCN(Cc2cc(C#N)c3oc(-c4cccc(-c5cccc(Nc6nccc7cc(CN8CC[C@@H](O)C8)cnc67)c5C)c4C)nc3c2)C1` (stereo partly drawn) [Example 185, 1-((7-cyano-2-(3′-(3-(((R)-3-hydroxypyrrolidin-1-yl)methyl)-1,7-naphthyridin-8-ylamino)-2,2′-dimethylbiphenyl-3-yl)benzo[d]oxazol-5-yl)methyl)-3-(methoxymethyl)pyrrolidine-3-carboxylic acid], at most 10 nM.
On to `Cc1c(Nc2nccc3cc(CN4CC[C@@H](O)C4)cnc23)cccc1-c1cccc(-c2nc3cc(CN4CCC(C(=O)O)CC4)cc(C#N)c3o2)c1C` [Example 186, (R)-1-((7-cyano-2-(3′-(3-((3-hydroxypyrrolidin-1-yl)methyl)-1,7-naphthyridin-8-ylamino)-2.2′-dimethylbiphenyl-3-yl)benzo [d]oxazol-5-yl)methyl)piperidine-4-carboxylic acid], for which the IC50 is at most 10 nM.
As for `Cc1c(-c2nc3cc(CN4CC[C@@](C)(C(=O)O)C4)cc(C#N)c3o2)cccc1-c1cccc(Nc2nccc3cc(CN4CC[C@@H](O)C4)cnc23)c1Cl` [Example 187, (R)-1-((2-(2′-chloro-3′-(3-(((R)-3-hydroxypyrrolidin-1-yl)methyl)-1,7-naphthyridin-8-ylamino)-2-methylbiphenyl-3-yl)-7-cyanobenzo[d]oxazol-5-yl)methyl)-3-methylpyrrolidine-3-carboxylic acid], the figure is at most 10 nM.
`Cc1c(-c2nc3cc(CN4CCC(C(=O)O)CC4)cc(C#N)c3o2)cccc1-c1cccc(Nc2nccc3cc(CN4CC[C@@H](O)C4)cnc23)c1Cl` [Example 188, (R)-1-((2-(2′-chloro-3′-(3-((3-hydroxypyrrolidin-1-yl)methyl)-1,7-naphthyridin-8-ylamino)-2-methylbiphenyl-3-yl)-7-cyanobenzo[d]oxazol-5-yl)methyl) piperidine-4-carboxylic acid]: the 50% inhibitory concentration (IC50) was at most 10 nM.
The value for `Cc1c(Nc2nccc3cc(CNCCO)cnc23)cccc1-c1cccc(-c2nc3cc(CN4CC[C@@](C)(C(=O)O)C4)cc(C#N)c3o2)c1C` [Example 189, (R)-1-((7-cyano-2-(3′-(3-((2-hydroxyethylamino)methyl)-1,7-naphthyridin-8-ylamino)-2,2′-dimethylbiphenyl-3-yl)benzo[d]oxazol-5-yl)methyl)-3-methylpyrrolidine-3-carboxylic acid] was at most 10 nM; that for `Cc1c(Nc2nccc3cc(CN(C)CCO)cnc23)cccc1-c1cccc(-c2nc3cc(CN4CC[C@@](C)(C(=O)O)C4)cc(C#N)c3o2)c1C` [Example 190, (R)-1-((7-cyano-2-(3′-(3-(((2-hydroxyethyl)(methyl)amino)methyl)-1,7-naphthyridin-8-ylamino)-2,2′-dimethylbiphenyl-3-yl)benzo[d]oxazol-5-yl)methyl)-3-methylpyrrolidine-3-carboxylic acid] was at most 10 nM; that for `Cc1c(Nc2nccc3cc(CNC[C@H](C)O)cnc23)cccc1-c1cccc(-c2nc3cc(CN4CC[C@@](C)(C(=O)O)C4)cc(C#N)c3o2)c1C` [Example 191, (R)-1-((7-cyano-2-(3′-(3-(((S)-2-hydroxypropylamino)methyl)-1,7-naphthyridin-8-ylamino)-2,2′-dimethylbiphenyl-3-yl)benzo[d]oxazol-5-yl)methyl)-3-methylpyrrolidine-3-carboxylic acid] was at most 10 nM.
As for `Cc1c(Nc2nccc3cc(CNC[C@@H](C)O)cnc23)cccc1-c1cccc(-c2nc3cc(CN4CC[C@@](C)(C(=O)O)C4)cc(C#N)c3o2)c1C` [Example 192, (R)-1-((7-cyano-2-(3′-(3-(((R)-2-hydroxypropylamino)methyl)-1,7-naphtyridin-8-ylamino)-2,2′-dimethylbiphenyl-3-yl)benzo[d]oxazol-5-yl)methyl)-3-methylpyrrolidine-3-carboxylic acid], the figure is at most 10 nM.

The values are drawn from patent publication US10308644B2, “Heterocyclic compounds as immunomodulators” (Incyte Corporation, priority 2016, dated 2019).
